In patent US20250360145A1, “CSF-1R INHIBITORS AND USES THEREOF” (Myrobalan Therapeutics, Inc., priority 2022, published 2025):
Read-outs that look alike come from different tables or passages of the source.

Columns and labels:
[1] = biological target: PDGFRβ (Homo sapiens (Human), UniProt P09619); experiment: Biochemical HTRF kinase assay, PDGFRβ; settings: for IC50: recombinant human protein, read-out: PDGFR-1β IC50; for PDGFR-1β Fold: selectivity: IC50 of PDGFR-1β as multiple of IC50 of CSF-1R;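 on all read-outs here: kinase reaction with substrate/ATP mix run 1 h at room temperature in 384-well format, HTRF signal detection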
[2] = biological target: c-Kit (Homo sapiens (Human), UniProt P10721); experiment: Biochemical HTRF kinase assay, c-Kit; settings: for IC50: recombinant human protein, read-out: cKit IC50; for cKit Fold: selectivity: IC50 of cKit as multiple of IC50 of CSF-1R;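 on all read-outs here: enzyme reaction with substrate and ATP run in 384-well plates for 1 hour at room temperature, kinase activity detected by HTRF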
[3] = biological target: CSF-1R (Homo sapiens (Human), UniProt P07333); experiment: Biochemical HTRF kinase assay, CSF-1R; settings: recombinant human CSF-1R;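 further: enzyme incubated with inhibitor plus a substrate and ATP mix for one hour at room temperature before HTRF detection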
[4] = In vivo PK study (plasma and brain exposure); design: species or system CD1 mouse; settings: for Kp uu / half-life / AUC(0-t) / AUC(0-inf) / clearance / Vd / bioavailability / Cmax / Tmax: male; for Kp uu: CD1, brain, BBB penetration; for half-life: CD1, mouse; for clearance: read-out: IV-2mpk CL (converted); for Vd: read-out: IV-2mpk VSS; for bioavailability: p.o. 45 mg/kg vs i.v. 2 mg/kg; for Cmax: read-out: PO-45mpk Cmax; for Tmax: read-out: PO-45mpk Tmax
Protocol: The PK profiles were determined in CD1 mouse, and all the procedures and protocols were in accordance with the National Institutes of Health Guide for the Care and Use of Laboratory Animals. The CD1 mouse were purchased from JH Laboratory Animal Co. LTD. The CD1 mouse (23-30 g, 6-8 weeks, male) were randomized and divided into five groups consisting of 21 mouse per group. The test compounds that have been formulated were subjected to PK studies. The test compounds were administrated via p.o. at 45 mg/kg and i.v. at 2 mg/kg. […] The blood samples were placed on wet ice, and serum was collected after centrifugation. Serum samples were frozen and stored at −70° C. The brain samples were dried on filtrate paper, and snap frozen on dry ice and further stored at −70° C. Then, the blood samples and brain samples were further analyzed by LC-MS/MS (Triple Quad 6500+).

[5] = biological target: FLT3 (Homo sapiens (Human), UniProt P36888); experiment: Biochemical HTRF kinase assay, FLT3; settings: for IC50: recombinant human protein; for FLT3 Fold: selectivity: IC50 of FLT3 as multiple of IC50 of CSF-1R
[6] = Brain protein binding study; assay type: in vitro ADME; settings: mouse brain homogenate, equilibrium dialysis 4 hours
Protocol: On the day of experiment, brain homogenate was thawed in water bath at room temperature and then incubated at 37° C. for 10 min before use. Pretreat the dialysis membrane according to the manufacturer's instructions: the dialysis membrane strips were soaked in ultra pure water at room temperature for approximately 1 hr. After that, each membrane strip that contains 2 membranes was separated and soaked in ethanol:water (20:80 v:v) for approximately 20 min, after which it was ready for use or was stored in the solution at 2-8° C. for up to 1 month. Prior to the experiment, the membrane was rinsed and soaked for 20 min in ultra pure water for use. Then working solutions (400 μM) of test compound and control compound were prepared. Aliquots of working solutions (3 μL) were spiked into blank matrix (597 μL) to achieve final concentrations and mixed thoroughly. Aliquots of 50 μL loading matrix containing test compound or control compound in triplicate was transferred to Sample Collection Plate, respectively. The samples were matched with opposite blank buffer to obtain a final volume of 100 μL with a volume ratio of matrix:Dialysis Buffer (1:1, v:v) in each well immediately. The stop solution was added to these T0 samples of test compound and control compound. The plate was sealed and shaked at 800 rpm for 10 min. Then these T0 samples were stored at 2-8° C. pending further process along with other post-dialysis samples. The dialysis instrument was assembled following manufacture's instructions. An aliquot of 100 μL of the loading matrix containing test compound or control compound was transferred to the donor side of each dialysis well in triplicate and 100 μL of the Dialysis Buffer was loaded to the receiver side of the well. Then the plate was rotated at approximately 100 rpm in a humidified incubator with 5% CO2 at 37±1° C. for 4 hours. At the end of the dialysis, aliquots of 50 μL samples from the buffer side and matrix side of the dialysis device were taken into new 96-well plates (Sample Collection Plates). An equal volume of opposite blank matrix (buffer or matrix) in each sample was added to reach a final volume of 100 μL with volume ratio of matrix:Dialysis Buffer at 1:1 (v:v) in each well. All samples were further processed by protein precipitation for LC/MS/MS analysis.

[7] = system: primary rat microglia; experiment: Primary rat microglia survival; assay type: cell-based; settings: 3 days of exposure, Iba1 staining
Source text: To assess the potency of CSF1R inhibitors disclosed herein we isolated and expanded primary brain glia from rat cortices in-vitro. This glial culture is about 20% microglia that is supported mostly by astrocytes that make up the rest of the population. The brain glia was exposed to CSF1R inhibitors for 3 days followed by paraformaldehyde fixation and immunofluorescence staining for the microglia marker, Iba1. The glial was imaged using a high-content-imager and the changes in microglia content were quantified. Using GraphPad Prism, a four-parameter logistic regression was applied to determine the potency of the CSF1R inhibitors.

[8] = system: Ba/F3_CSF-1R (stably expressing human CSF-1R kinase); experiment: Cell proliferation assay, Ba/F3_CSF-1R; assay type: cell-based; settings: BaF3, 72 h
[9] = system: EOC2 cell; experiment: Cell proliferation assay, EOC2; assay type: cell-based, mouse; settings: Mus musculus, 72 h
[10] = system: human iPSC-derived microglia (hiPSC-MG); experiment: hiPSC-MG survival (Presto-Blue viability); assay type: cell-based; settings: 48 h treatment; for hiPSC-MG survival: FIG. 7B
[11] = serum, iv, 2 mg/kg, CD1 mouse, i.v. 2 mg/kg, read-out: IV-2mpk T1/2 (converted)
[12] = serum, po, 45 mg/kg, CD1 mouse, p.o. 45 mg/kg, read-out: PO-45mpk T1/2 (converted)
[13] = CD1, po, mouse, p.o. 45 mg/kg, brain, read-out: PO-45mpk AUClast-brain
[14] = CD1, po, mouse, p.o. 45 mg/kg, plasma, Tables 7 and 8, read-out: PO-45mpk AUClast-plasma
[15] = serum, iv, CD1 mouse, i.v. 2 mg/kg, read-out: IV-2mpk AUCInf
[16] = serum, iv, CD1 mouse, i.v. 2 mg/kg, read-out: IV-2mpk AUClast
[17] = serum, iv, CD1 mouse, i.v. 2 mg/kg
[18] = serum, po, CD1 mouse, p.o. 45 mg/kg, Tables 5 and 6, read-out: PO-45mpk AUClast
[19] = serum, po, CD1 mouse, p.o. 45 mg/kg, read-out: PO-45mpk AUCInf
[20] = serum, po, CD1 mouse, p.o. 45 mg/kg
[21] = read-out: CSF-1R BaF3 EC50 (nM)
[22] = EOC2 cells, 72 hours treatment, read-out: ECO2 EC50

Chain of FLT3 (P36888 27-993): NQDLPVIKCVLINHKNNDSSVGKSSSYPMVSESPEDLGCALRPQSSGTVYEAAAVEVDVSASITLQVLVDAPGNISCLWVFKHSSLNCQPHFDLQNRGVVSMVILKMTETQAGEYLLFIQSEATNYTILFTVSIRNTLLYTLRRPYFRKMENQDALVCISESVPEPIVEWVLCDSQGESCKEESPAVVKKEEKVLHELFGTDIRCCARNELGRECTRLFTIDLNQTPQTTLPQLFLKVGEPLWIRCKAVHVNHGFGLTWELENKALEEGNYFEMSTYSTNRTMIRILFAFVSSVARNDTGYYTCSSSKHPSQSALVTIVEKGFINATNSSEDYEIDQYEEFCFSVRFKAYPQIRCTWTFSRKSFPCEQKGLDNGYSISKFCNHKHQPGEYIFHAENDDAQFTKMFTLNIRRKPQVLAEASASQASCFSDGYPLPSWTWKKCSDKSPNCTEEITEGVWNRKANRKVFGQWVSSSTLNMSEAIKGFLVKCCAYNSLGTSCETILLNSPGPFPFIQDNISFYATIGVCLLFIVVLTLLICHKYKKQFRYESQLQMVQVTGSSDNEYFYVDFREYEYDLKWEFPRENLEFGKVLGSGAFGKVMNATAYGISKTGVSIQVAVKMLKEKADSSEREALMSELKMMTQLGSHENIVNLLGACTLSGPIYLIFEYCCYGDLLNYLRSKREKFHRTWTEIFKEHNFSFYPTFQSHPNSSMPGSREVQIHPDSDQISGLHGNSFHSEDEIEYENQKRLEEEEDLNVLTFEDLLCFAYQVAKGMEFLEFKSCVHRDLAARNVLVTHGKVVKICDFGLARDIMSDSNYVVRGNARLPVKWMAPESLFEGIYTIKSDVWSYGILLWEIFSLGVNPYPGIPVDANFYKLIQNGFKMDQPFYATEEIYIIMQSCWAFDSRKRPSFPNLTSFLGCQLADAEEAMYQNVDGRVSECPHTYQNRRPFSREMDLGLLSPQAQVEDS
Chain of c-Kit (P10721 26-976): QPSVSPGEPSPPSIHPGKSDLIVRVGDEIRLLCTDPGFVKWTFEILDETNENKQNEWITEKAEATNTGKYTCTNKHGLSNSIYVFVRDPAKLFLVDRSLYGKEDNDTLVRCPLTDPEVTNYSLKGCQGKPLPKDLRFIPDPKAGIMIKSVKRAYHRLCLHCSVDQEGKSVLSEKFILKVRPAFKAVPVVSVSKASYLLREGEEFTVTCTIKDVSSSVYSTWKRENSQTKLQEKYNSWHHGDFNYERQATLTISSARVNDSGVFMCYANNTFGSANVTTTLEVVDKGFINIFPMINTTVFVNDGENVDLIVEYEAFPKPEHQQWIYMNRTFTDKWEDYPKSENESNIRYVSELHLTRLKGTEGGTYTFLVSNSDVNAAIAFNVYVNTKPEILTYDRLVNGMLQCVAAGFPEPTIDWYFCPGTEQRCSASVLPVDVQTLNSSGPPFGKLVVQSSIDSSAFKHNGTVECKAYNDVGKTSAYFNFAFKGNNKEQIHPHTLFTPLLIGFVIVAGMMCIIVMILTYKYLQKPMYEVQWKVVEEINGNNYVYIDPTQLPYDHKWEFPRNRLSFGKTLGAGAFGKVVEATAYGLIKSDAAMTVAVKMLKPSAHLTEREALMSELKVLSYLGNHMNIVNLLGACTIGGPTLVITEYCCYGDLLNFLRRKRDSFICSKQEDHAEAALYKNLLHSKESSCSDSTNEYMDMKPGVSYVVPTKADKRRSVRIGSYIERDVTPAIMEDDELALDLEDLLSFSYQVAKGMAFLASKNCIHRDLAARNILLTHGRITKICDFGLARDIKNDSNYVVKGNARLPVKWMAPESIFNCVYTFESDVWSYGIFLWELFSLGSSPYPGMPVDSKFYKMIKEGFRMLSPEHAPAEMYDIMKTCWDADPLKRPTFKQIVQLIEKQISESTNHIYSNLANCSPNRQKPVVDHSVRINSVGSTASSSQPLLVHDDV
Chain of CSF-1R (P07333 20-972): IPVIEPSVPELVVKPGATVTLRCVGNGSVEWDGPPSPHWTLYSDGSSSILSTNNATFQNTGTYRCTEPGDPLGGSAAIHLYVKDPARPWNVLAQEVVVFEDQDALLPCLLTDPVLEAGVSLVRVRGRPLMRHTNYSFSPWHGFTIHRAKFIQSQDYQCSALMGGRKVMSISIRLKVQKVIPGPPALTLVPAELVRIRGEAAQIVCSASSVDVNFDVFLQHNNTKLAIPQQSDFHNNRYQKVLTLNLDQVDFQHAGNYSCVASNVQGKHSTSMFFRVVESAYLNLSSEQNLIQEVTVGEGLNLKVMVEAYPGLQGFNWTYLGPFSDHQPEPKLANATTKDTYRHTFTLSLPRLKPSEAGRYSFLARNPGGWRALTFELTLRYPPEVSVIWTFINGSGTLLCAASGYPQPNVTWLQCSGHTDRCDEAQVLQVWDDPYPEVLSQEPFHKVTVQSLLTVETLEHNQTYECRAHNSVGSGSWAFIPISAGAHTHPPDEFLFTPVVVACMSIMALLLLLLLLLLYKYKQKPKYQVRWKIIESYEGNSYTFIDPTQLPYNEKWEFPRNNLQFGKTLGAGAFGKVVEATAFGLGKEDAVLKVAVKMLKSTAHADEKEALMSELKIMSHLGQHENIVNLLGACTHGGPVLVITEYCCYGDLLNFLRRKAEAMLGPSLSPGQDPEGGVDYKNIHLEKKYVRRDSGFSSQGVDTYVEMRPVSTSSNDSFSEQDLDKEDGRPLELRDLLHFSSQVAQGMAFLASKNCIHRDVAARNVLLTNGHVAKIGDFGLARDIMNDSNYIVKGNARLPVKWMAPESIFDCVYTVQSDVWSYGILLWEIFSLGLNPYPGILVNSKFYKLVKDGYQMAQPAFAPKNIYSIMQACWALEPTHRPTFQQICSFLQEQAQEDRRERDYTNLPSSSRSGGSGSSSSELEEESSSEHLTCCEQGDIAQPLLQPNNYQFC
Chain of PDGFRβ (P09619 33-1106): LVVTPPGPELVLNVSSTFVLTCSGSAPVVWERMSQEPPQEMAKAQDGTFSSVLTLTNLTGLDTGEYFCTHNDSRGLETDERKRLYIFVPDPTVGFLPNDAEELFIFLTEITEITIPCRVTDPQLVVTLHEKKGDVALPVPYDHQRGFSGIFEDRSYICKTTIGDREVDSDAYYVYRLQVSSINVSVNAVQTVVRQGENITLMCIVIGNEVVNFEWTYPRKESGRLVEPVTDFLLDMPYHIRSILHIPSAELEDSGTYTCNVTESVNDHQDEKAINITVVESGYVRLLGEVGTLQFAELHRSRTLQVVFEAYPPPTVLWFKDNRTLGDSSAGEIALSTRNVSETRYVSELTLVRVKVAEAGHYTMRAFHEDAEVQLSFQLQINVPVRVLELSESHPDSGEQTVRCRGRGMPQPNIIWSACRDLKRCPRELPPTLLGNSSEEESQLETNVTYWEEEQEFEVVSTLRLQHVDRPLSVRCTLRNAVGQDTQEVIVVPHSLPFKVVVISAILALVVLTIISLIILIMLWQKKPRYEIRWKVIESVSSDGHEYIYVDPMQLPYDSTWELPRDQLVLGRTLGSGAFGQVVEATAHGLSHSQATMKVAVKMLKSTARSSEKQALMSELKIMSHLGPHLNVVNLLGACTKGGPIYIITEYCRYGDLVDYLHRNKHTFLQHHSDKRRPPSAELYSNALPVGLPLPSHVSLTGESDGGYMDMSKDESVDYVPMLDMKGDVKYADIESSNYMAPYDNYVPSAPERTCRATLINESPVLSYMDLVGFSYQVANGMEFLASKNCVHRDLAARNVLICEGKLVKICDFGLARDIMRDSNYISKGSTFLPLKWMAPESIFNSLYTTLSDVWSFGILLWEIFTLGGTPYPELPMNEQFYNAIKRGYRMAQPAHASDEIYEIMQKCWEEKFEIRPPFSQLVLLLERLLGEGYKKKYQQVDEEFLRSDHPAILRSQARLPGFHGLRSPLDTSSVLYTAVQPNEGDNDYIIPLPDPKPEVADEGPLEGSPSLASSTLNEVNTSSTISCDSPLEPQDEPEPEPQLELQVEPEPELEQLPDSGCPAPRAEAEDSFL

Compound | IC50 [1] [nM] | PDGFR-1β Fold [1] [fold] | IC50 [2] [nM] | cKit Fold [2] [fold] | IC50 ([3]; Table 2) [nM] | IC50 ([3]; Table 3) [nM] | Kp uu ([4]; po, mouse, p.o. 45 mg/kg) | half-life [4, 11] [min] | half-life [4, 12] [min] | AUC(0-t) [4, 13] [ng·h/mL] | AUC(0-t) [4, 14] [ng·h/mL] | AUC(0-inf) [4, 15] [ng·h/mL] | AUC(0-t) [4, 16] [ng·h/mL] | clearance [4, 17] [mL/min/kg] | Vd [4, 17] [L/kg] | bioavailability ([4]; serum, po, CD1 mouse) [%] | AUC(0-t) [4, 18] [ng·h/mL] | Cmax [4, 20] [ng/mL] | Tmax [4, 20] [min] | BPB-mouse (Bound) (%) [6] [%] | also measured
COc1cnc2c(Cc3cnc(OCc4cc5n(n4)CCOC5)c(OC)c3)ccnc2c1 [Example 73, 2-(((3-methoxy-5-((7-methoxy-1,5-naphthyridin-4-yl)methyl)pyridin-2-yl)oxy)methyl)-6,7-dihydro-4H-pyrazolo[5,1-c][1,4]oxazine] | > 1000 | >100 | > 1000 | >100 | 3.3 | 3.3 | 0.67 | 151 | 94.2 | 31800 | 214000 | 9090 | 9090 | 3.67 | 0.461 | 98.8 | 202000 | 100000 | 30 | 95.5 | IV-2mpk T1/2 ([4]; CD1 mouse, i.v. 2 mg/kg): 2.56 h; AUC(0-inf) [4, 19]: 202000 ng·h/mL; IC50 [5]: > 1000 nM; FLT3 Fold [5]: >100 fold; primary rat microglia survival [7]: dose-dependent inhibition of primary rat microglia survival; EC50 [8, 21]: 73.1 nM; EC50 ([9]; read-out: ECO2 EC50 (nM)): 47.5 nM; hiPSC-MG survival IC50 compared with BLZ945 [10]: lower than that of BLZ945; hiPSC-MG survival [10]: dose-dependent inhibition of hiPSC-MG survival
COc1ccc(COc2ncc(Cc3ccnc4cc(N5CCN(C)CC5)cnc34)cc2OC)nc1 [Example 116] | > 1000 | >100 | > 1000 | >100 | 3 | 3 | 0.99 | 385 | 292 | 4250 | 4620 | 578 | 566 | 57.7 | 9.54 | 42.1 | 5370 | 2310 | 15 | 95.5 | AUC(0-inf) [4, 19]: 5480 ng·h/mL; IC50 [5]: > 1000 nM; FLT3 Fold [5]: >100 fold; EC50 ([8]; Ba/F3_CSF-1R cells, 72 hours treatment, read-out: CSF-1R BaF3 EC50): 33.8 nM; EC50 [9, 22]: 10 nM
COc1cnc2c(Cc3cnc(OCc4cc5n(n4)C[C@H](OC)C5)c(OC)c3)ccnc2c1 [Example 136, (R)-3-methoxy-8-((5-methoxy-6-((5-methoxy-5,6-dihydro-4H-pyrrolo[1,2-b]pyrazol-2-yl)methoxy)pyridin-3-yl)methyl)-1,5-naphthyridine] | > 1000 | >100 | > 1000 | >100 | 5 | 5 | 0.94 | 46.6 |  | 16200 | 93200 | 4940 | 4940 | 6.75 | 0.274 | 77.1 | 85700 | 51200 | 30 | 97.3 | primary rat microglia survival [7]: dose-dependent inhibition of primary rat microglia survival; EC50 [8, 21]: 66.2 nM; EC50 ([9]; read-out: ECO2 EC50 (nM)): 94.8 nM; hiPSC-MG survival [10]: dose-dependent inhibition of hiPSC-MG survival
COc1ccc(COc2ncc(Cc3ccnc4cc(-c5ccn(C)n5)cnc34)cc2OC)nc1 [Example 134, 8-((5-methoxy-6-((5-methoxypyridin-2-yl)methoxy)pyridin-3-yl)methyl)-3-(1-methyl-1H-pyrazol-3-yl)-1,5-naphthyridine] | 394 | 59.7 |  |  | 6.6 | 6.6 | 0.75 | 83.4 | 112 | 44400 | 88400 | 1890 | 1860 | 17.7 | 1.45 | 227 | 96400 | 18100 | 30 | 98.8 | AUC(0-inf) [4, 19]: 96500 ng·h/mL; primary rat microglia survival [7]: dose-dependent inhibition of primary rat microglia survival; EC50 [8, 21]: 7.1 nM; EC50 [9, 22]: 5.5 nM; hiPSC-MG survival IC50 compared with BLZ945 [10]: lower than that of BLZ945; hiPSC-MG survival [10]: dose-dependent inhibition of hiPSC-MG survival
